In patent US8895585B2, “Nicotinamide derivative or salt thereof” (FUJIFILM Corporation, priority 2010, dated 2014):
Read-outs that look alike come from different tables or passages of the source.

Legend:
[1] = target: T1, glutathione S-transferase (GST)-fused full-length human Syk protein (Homo sapiens, UniProt P43405); experiment: Syk enzyme assay; assay type: biochemical; settings: Syk enzyme assay, Test Example 1; read-out: IC50 of Syk-inhibitory activity
T1 construct: (GST)-fused full-length human Syk protein; GST (glutathione S-transferase); purchased Carna Biosciences
Summary of the method: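 Baculovirus-expressed enzyme (1.2 ng) was preincubated with compound in HEPES pH 7.0/MgCl2/DTT buffer, 2 min shaking then 13 min at room temperature. Biotin-EDPDYEWPSA-NH2 (0.4 μM final) and ATP (27 μM final) were added for 40 min at room temperature. EDTA stop, streptavidin-XL/PT66-K TR-FRET at 615/665 nm gave IC50.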

[2] = tested on: THP-1 cells; experiment: TNFα generation assay; assay type: cell-based, human; settings: Homo sapiens
Description: THP-1 cells (2×10^5 cells/ml), which were human monocytoid cells, were cultured in the presence of 10 ng/ml IFN-γ (Roche) for 2 days, so that the cells were induced to differentiate into macrophage-like cells. The differentiation-induced THP-1 cells were recovered, and the cells (1×10^6 cell/ml) were then allowed to react with a predetermined concentration of test compound at room temperature for 30 minutes. On the other hand, 100 μl of human IgG (10 μg/ml, SIGMA-ALDRICH) diluted with PBS was added to a 96-well plate, and it was then incubated at room temperature overnight. Thereafter, the resultant was washed with PBS twice to produce a human IgG-coated plate. Subsequently, a cell solution that contained a compound was inoculated on the human IgG-coated plate (5×10^4 cells/well), and it was then cultured for 7 hours. Thereafter, the cultured solution was recovered, and the amount of TNFα secreted into the culture solution was then measured by the ELISA method (Roche/R & D Systems) or the AlphaLISA method (PerkinElmer).

[3] = THP-1, THP-1 cells, Table 22, read-out: IC50 in TNFα generation assay
[4] = THP-1, 7 h, IFN-γ-differentiated THP-1 cells on human IgG-coated plate, cultured 7 hours, read-out: TNFα generation inhibitory activity (IC50)

`NC(=O)c1cc(F)c(N[C@@H]2CCCC[C@@H]2N)nc1Nc1cncc(-c2cnco2)c1` (relative stereo) [Example 004-118, 6-(cis-2-aminocyclohexylamino)-5-fluoro-2-((5-(oxazol-5-yl)pyridin-3-yl)amino)-nicotinamide] showed an IC50 [1] of less than 0.01 µM and an IC50 [2, 3] of 0.065 to 0.13 µM.
Work on `Cn1ccc2c(Nc3nc(N[C@H](Cc4ccccc4)C(N)=O)c(F)cc3C(N)=O)ccnc21` [Example 004-044] yielded an IC50 [1] of less than 0.01 µM and an IC50 [2, 3] of 0.13 to 0.2 µM.
With `CCn1nc(C2CC2)c2cc(Nc3nc(N[C@@H]4CCCC[C@@H]4N)c(F)cc3C(N)=O)ccc21` [Example 006-548, 6-(((1R,2S)-2-aminocyclohexyl)amino)-2-((3-cyclopropyl-1-ethyl-1H-indazol-5-yl)amino)-5-fluoronicotinamide] the IC50 [1] was less than 0.01 µM and the IC50 [2, 3] was 0.065 to 0.13 µM.
Molecule `NC(=O)c1cc(F)c(NC2CCCCC2N)nc1Nc1cncc(NC(=O)c2ccco2)c1` (stereo not drawn) [Example 027-033] has an IC50 [1] of less than 0.01 µM and an IC50 [2, 3] of 0.13 to 0.2 µM.
`CCc1ncc(Nc2nc(N[C@@H]3CCCC[C@@H]3N)c(F)cc2C(N)=O)cc1C` [Example 006-502, 6-(((1R,2S)-2-aminocyclohexyl)amino)-2-((6-ethyl-5-methylpyridin-3-yl)amino)-5-fluoronicotinamide] gave an IC50 [1] of less than 0.01 µM and an IC50 [2, 3] of 0.065 to 0.13 µM.
In the case of `CN(C)c1cccc(-c2cncc(Nc3nc(N[C@@H]4CCCC[C@@H]4N)c(F)cc3C(N)=O)c2)c1` (relative stereo) [Example 004-227, 6-(cis-2-aminocyclohexylamino)-2-((5-(3-(dimethylamino)phenyl)pyridin-3-yl)amino)-5-fluoronicotinamide], the IC50 [1] is reported as less than 0.01 µM and the IC50 [2, 3] is reported as 0.13 to 0.2 µM.
With `CCS(=O)(=O)Nc1cccc2cc(Nc3nc(N[C@@H]4CCCC[C@@H]4N)c(F)cc3C(N)=O)cnc12` (relative stereo) [Example 41-12, 6-(cis-2-aminocyclohexylamino)-2-((8-(ethylsulphonamide)quinolin-3-yl)amino)-5-fluoronicotinamide] the IC50 [1] was less than 0.01 µM and the IC50 [2, 3] was 0.13 to 0.2 µM.
In the case of `Cc1ncc(Nc2nc(NC3CCCCC3N)c(F)cc2C(N)=O)cc1C1CC1` (stereo not drawn) [Example 002-118], the IC50 [1] is reported as 0.01 to 0.05 µM and the IC50 [2, 3] is reported as 0.13 to 0.2 µM.
`CCCC[C@H](CN)Nc1nc(Nc2ccc3c(cnn3CC)c2)c(C(N)=O)cc1F` [Example 006-323, (R)-6-((1-aminohexan-2-yl)amino)-2-((1-ethyl-1H-indazol-5-yl)amino)-5-fluoronicotinamide] showed an IC50 [1] of less than 0.01 µM and an IC50 [2, 3] of 0.065 to 0.13 µM.
`Cc1cnc2cc(Nc3nc(N[C@H](C)[C@H](C)N)c(F)cc3C(N)=O)ccc2n1` (racemic) [Example 006-196, 6-(((2R,3S)-3-aminobutan-2-yl)amino)-5-fluoro-2-((2-methylquinoxalin-6-yl)amino)nicotinamide 6-(((2S,3R)-3-aminobutan-2-yl)amino)-5-fluoro-2-((2-methylquinoxalin-6-yl)amino)nicotinamide] gave an IC50 [1] of 0.01 to 0.05 µM and an IC50 [2, 3] of 0.065 to 0.13 µM.
`CCOc1ncc(Nc2nc(N[C@@H]3CCCC[C@@H]3N)c(F)cc2C(N)=O)cc1N1CCOCC1` [Example 006-565, 6-(((1R,2S)-2-aminocyclohexyl)amino)-2-((6-ethoxy-5-morpholinopyridin-3-yl)amino)-5-fluoronicotinamide] showed an IC50 [1] of 0.1 to 1 µM and an IC50 [2, 3] of 0.065 to 0.13 µM.
`CCn1nc(F)c2cc(Nc3nc(N[C@H](CC(C)C)[C@H](C)N)c(F)cc3C(N)=O)ccc21` [Example 006-512, 6-(((2S,3R)-2-amino-5-methylhexan-3-yl)amino)-2-((1-ethyl-3-fluoro-1H-indazol-5-yl)amino)-5-fluoronicotinamide] gave an IC50 [1] of less than 0.01 µM and an IC50 [2, 3] of 0.065 to 0.13 µM.
`NC(=O)c1cc(Br)c(NC2CCCCC2N)nc1Nc1cnc2ccccc2c1` (stereo not drawn) [Example 035-002] gave an IC50 [1] of less than 0.01 µM and an IC50 [2, 3] of 0.065 to 0.13 µM.
Molecule `NC(=O)c1cc(F)c(NC2CCCCC2N)nc1Nc1ccnc(-c2ccccc2F)c1` (stereo not drawn) [Example 002-131] has an IC50 [1] of less than 0.01 µM and an IC50 [2, 3] of 0.065 to 0.13 µM.
Molecule `NC(=O)c1cc(F)c(N[C@@H](C(N)=O)c2ccccc2)nc1Nc1cnc2ccccc2c1` [Example 012-013] has an IC50 [1] of 0.01 to 0.05 µM and an IC50 [2, 3] of 0.13 to 0.2 µM.
`COc1cc(Nc2nc(N[C@@H](CN)c3ccccc3)c(F)cc2C(N)=O)ccn1` [Example 006-133, (R)-6-((2-amino-1-phenylethyl)amino)-5-fluoro-2-((2-methoxypyridin-4-yl)amino)nicotinamide] gave an IC50 [1] of 0.01 to 0.05 µM and an IC50 [2, 3] of 0.13 to 0.2 µM.
`CC[C@@H](Nc1nc(Nc2ccnc(-c3cc(OC)ccc3F)c2)c(C(N)=O)cc1F)[C@H](C)N` [Example 006-315, 6-(((2S,3R)-2-aminopentan-3-yl)amino)-5-fluoro-2-((2-(2-fluoro-5-methoxyphenyl)pyridin-4-yl)amino)nicotinamide] showed an IC50 [1] of less than 0.01 µM and an IC50 [2, 3] of less than 0.065 µM.
`CCC[C@@H](Nc1nc(Nc2ccc3c(cnn3C)c2)c(C(N)=O)cc1F)[C@@H](N)CC` [Example 006-398, 6-(((3S,4R)-3-aminoheptan-4-yl)amino)-5-fluoro-2-((1-methyl-1H-indazol-5-yl)amino)nicotinamide] was tested, and the IC50 [1] was less than 0.01 µM and the IC50 [2, 3] was 0.065 to 0.13 µM.
In the case of `COc1ccc2cc(Nc3nc(N[C@@H](CN)CC4CC4)c(F)cc3C(N)=O)cnc2c1` [Example 006-215, (R)-6-((1-amino-3-cyclopropylpropan-2-yl)amino)-5-fluoro-2-((7-methoxyquinolin-3-yl)amino)nicotinamide], the IC50 [1] is reported as less than 0.01 µM and the IC50 [2, 3] is reported as 0.065 to 0.13 µM.
Molecule `Cc1ccc(Nc2nc(N[C@@H](CN)CC(C)C)c(F)cc2C(N)=O)cn1` [Example 006-233, (R)-6-((1-amino-4-methylpentan-2-yl)amino)-5-fluoro-2-((6-methylpyridin-3-yl)amino)nicotinamide] has an IC50 [1] of 0.01 to 0.05 µM and an IC50 [2, 3] of 0.13 to 0.2 µM.
`NC(=O)c1cc(F)c(N[C@@H]2CCCC[C@@H]2N)nc1Nc1cc(-n2cncn2)nc2[nH]ccc12` (relative stereo) [Example 004-069, 2-((6-(1H-1,2,4-triazol-1-yl)-1H-pyrrolo[2,3-b]pyridin-4-yl)amino)-6-(cis-2-aminocyclohexylamino)-5-fluoronicotinamide] was tested, and the IC50 [1] was less than 0.01 µM and the IC50 [2, 3] was 0.065 to 0.13 µM.
`CCC[C@@H](Nc1nc(Nc2cncc(C3CC3)c2)c(C(N)=O)cc1F)[C@@H](N)CC` [Example 006-402, 6-(((3S,4R)-3-aminoheptan-4-yl)amino)-2-((5-cyclopropylpyridin-3-yl)amino)-5-fluoronicotinamide] was tested, and the IC50 [1] was less than 0.01 µM and the IC50 [2, 3] was 0.13 to 0.2 µM.
`CCCOc1cc(Nc2nc(N[C@H](C)[C@H](C)N)c(F)cc2C(N)=O)ccn1` (racemic) [Example 006-187, 6-(((2R,3S)-3-aminobutan-2-yl)amino)-5-fluoro-2-((2-propoxypyridin-4-yl)amino)nicotinamide 6-(((2S,3R)-3-aminobutan-2-yl)amino)-5-fluoro-2-((2-propoxypyridin-4-yl)amino)nicotinamide] showed an IC50 [1] of less than 0.01 µM and an IC50 [2, 3] of 0.13 to 0.2 µM.
`NC(=O)c1cc(F)c(N[C@@H]2CCCC[C@@H]2N)nc1Nc1ccc2nsnc2c1` (relative stereo) [Example 6-34, 6-(cis-2-aminocyclohexylamino)-2-((benzo[c][1,2,5]thiadiazol-5-yl)amino)-5-fluoronicotinamide] showed an IC50 [2, 4] of no more than 0.2 µM.
Molecule `NC(=O)c1cc(F)c(N[C@@H]2CCCC[C@@H]2N)nc1Nc1cncc(-c2ccccc2)c1` (relative stereo) [Example 2-1, 6-(cis-2-aminocyclohexylamino)-5-fluoro-2-((5-phenylpyridin-3-yl)amino)nicotinamide] has an IC50 [2, 4] of no more than 0.2 µM.
